Measured values reported in article PMC8746645, “Isolation of Anti-Diabetic Active Compounds from Benincasae Exocarpium and Development of Simultaneous Analysis by HPLC-PDA” (Molecules, 2021).
Read-outs that look alike come from different tables or passages of the source.

Columns and labels:
[1] = test system: advanced glycation end-products (AGEs) formation in BSA-methylglyoxal (MGO) system; test: AGE formation inhibitory assay, BSA-MGO system; assay type: biochemical, bovine
Description: The AGE formation inhibitory assay of BSA-MGO was conducted using spectrophotometry according to a previously described method with modification. All samples were dissolved in 10% DMSO. The assay mixtures contained 50 µL of 50 mM phosphate buffer (pH 7.4) containing 0.02% sodium azide and BSA (10 mg/mL), 50 µL of 7 mM MGO, and 50 µL of sample. After incubation at 60 °C for 2 days, fluorescence was measured on excitation and emission wavelengths of 340 and 420 nm, respectively, in a 96-black well plate. AMG was used as a positive control. The inhibitory activity on AGE formation by BSA-MGO was calculated using the same equation applied in the BSA-glucose assay.

[2] = test system: advanced glycation end-products (AGEs) formation in bovine serum albumin (BSA)-glucose system; assay type: biochemical
Description: The AGE formation inhibitory assay of BSA-glucose was conducted using a spectrophotometric method developed in a previous study. All test samples were dissolved in 10% DMSO at five different concentrations (1000–10,000 μg/mL for the extract and fractions and 100–10,000 μM for the compounds). The assay mixtures contained the following constituents: 135 µL of 50 mM phosphate buffer (pH 7.4) containing 0.02% sodium azide and BSA (10 mg/mL), 135 µL of 0.4 M D-fructose and D-glucose, and 30 µL of sample. The mixture was incubated at 60 °C for 2 days. After incubation, the fluorescence was measured at an excitation wavelength of 350 nm and emission wavelength of 450 nm in a 96-black well plate. AMG was used as a positive control. The inhibitory activity on AGE formation of BSA-glucose was calculated using the following formula: {(Ac − As)/Ac} × 100, where Ac is the fluorescence of the control and As is the fluorescence of the sample. Controls contained the same reaction mixture, except that phosphate buffer was added instead of the sample. The half-maximal inhibitory concentration (IC50) values of triplicate measurements of the samples and AMG were calculated and expressed as the mean ± SD.

[3] = design: method as in PMID 29885110; details: cited from earlier work
[4] = target: α-glucosidase from Saccharomyces cerevisiae (Saccharomyces cerevisiae, UniProt P53341); test: α-glucosidase inhibitory activity assay (p-NPG substrate); assay type: biochemical; details: for IC50: compounds, pH 6.8, 37 °C, 405 nm, mean ± SD (n = 3)
Sequence of α-glucosidase from Saccharomyces cerevisiae (P53341 whole entry): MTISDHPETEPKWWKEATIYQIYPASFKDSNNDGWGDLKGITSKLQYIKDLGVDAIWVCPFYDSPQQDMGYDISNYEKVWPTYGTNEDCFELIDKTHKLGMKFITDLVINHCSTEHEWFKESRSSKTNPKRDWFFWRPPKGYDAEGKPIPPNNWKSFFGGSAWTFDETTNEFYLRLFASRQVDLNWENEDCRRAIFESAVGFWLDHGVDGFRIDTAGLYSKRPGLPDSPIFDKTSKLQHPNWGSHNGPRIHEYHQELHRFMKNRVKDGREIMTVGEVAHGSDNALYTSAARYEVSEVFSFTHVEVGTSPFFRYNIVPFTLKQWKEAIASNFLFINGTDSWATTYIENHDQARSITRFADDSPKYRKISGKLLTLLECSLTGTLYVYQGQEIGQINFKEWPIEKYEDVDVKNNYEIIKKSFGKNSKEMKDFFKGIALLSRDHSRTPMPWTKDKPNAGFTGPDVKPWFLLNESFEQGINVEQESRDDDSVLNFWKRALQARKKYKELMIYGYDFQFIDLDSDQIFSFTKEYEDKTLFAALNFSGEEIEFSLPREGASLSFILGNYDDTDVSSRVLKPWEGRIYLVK
Description: Among the anti-diabetes activity assays, the Infinite® F200 PRO spectrophotometer (TECAN, Männedorf, Zürich, Switzerland) was used for the AGE formation inhibitory activity assay in the BSA-glucose and BSA-MGO systems. In addition, the α-glucosidase inhibitory activity assay was performed using Biotek EPOCH2 (Biotek, Winooski, VT, USA).
α-Glucosidase inhibitory activity was measured spectrophotometrically according to the previously described method. All samples were dissolved in 10% DMSO. This assay consisted of a 50 μL sample solution, 50 μL of 50 mM potassium phosphate buffer (pH 6.8), and 50 μL of 0.5 U/mL α-glucosidase was preincubated for 10 min at 37 °C. After incubation, 50 μL of p-NPG was added to the mixed assay mixtures. […] The inhibitory activity was calculated using the equation applied in the BSA-glucose assay, but Ac and As are the absorbance values of the control and sample, respectively.

[5] = compounds, 60 °C, 2 days, fluorescence ex 340/em 420 nm, mean ± SD (n = 3)
[6] = compounds, 60 °C, 2 days, fluorescence ex 350/em 450 nm, mean ± SD (n = 3), read-out: IC50 BSA-Glucose

With `Cl.N=C(N)NN` [AMG, aminoguanidine hydrochloride, reference compound] the “IC50 BSA-MGO” value ([1]; extract and fractions, 60 °C, 2 days, fluorescence ex 340/em 420 nm, mean ± SD (n = 3)) was 167.32 ± 8.40 µg/mL and the “IC50 BSA-Glucose” value ([2]; extract and fractions, 60 °C, 2 days, fluorescence ex 350/em 450 nm, mean ± SD (n = 3)) was 217.93 ± 1.54 µg/mL.
In the case of `N=C(N)NN` [Aminoguanidine, aminoguanidine], the “toxicity during clinical evaluation” value [3] is listed as “toxic”.
With `O=C(O)c1ccc(O)cc1` [Compound 1, p-hydroxybenzoic acid] the “inhibition of AGE formation in BSA-MGO system (in words)” value [1] was “no or slight inhibitory activity”, the “inhibition of AGE formation in BSA-glucose system (in words)” value [2] was “no activity” and the “α-glucosidase inhibitory activity (in words)” value [4] was “no, or slight, inhibitory activity”.
For `O=C(O)c1ccc(O)c(O)c1` [Compound 2, protocatechuic acid], the IC50 [1, 5] was 53.2 ± 23.2 µM and the IC50 [2, 6] was 79.8 ± 1.91 µM.
For `COc1ccc(C=O)cc1O` [Compound 3, isovanillin], the “inhibition of AGE formation in BSA-MGO system (in words)” value [1] was “no or slight inhibitory activity”, the IC50 [1, 5] was greater than 500 µM and the “inhibition of AGE formation in BSA-glucose system (in words)” value [2] was “no activity”. For the same molecule, the “α-glucosidase inhibitory activity (in words)” value [4] was “no, or slight, inhibitory activity”.
With `O=Cc1ccc(CO)o1` [Compound 4, 5-hydroxymethylfurfural] the “inhibition of AGE formation in BSA-MGO system (in words)” value [1] was “no or slight inhibitory activity”, the IC50 [1, 5] was 381 ± 14.7 µM and the “inhibition of AGE formation in BSA-glucose system (in words)” value [2] was “no activity”. The “α-glucosidase inhibitory activity (in words)” value [4] was “no, or slight, inhibitory activity”.
With `O=c1cc(-c2ccc(O)cc2)oc2cc(O)c([C@@H]3O[C@H](CO)[C@@H](O)[C@H](O)[C@H]3O)c(O)c12` [Compound 5, isovitexin] the IC50 [1, 5] was 7.49 ± 0.24 µM and the IC50 [2, 6] was 20.2 ± 0.1 µM.
Work on `O=c1cc(-c2ccc(O)cc2)oc2c([C@@H]3O[C@H](CO)[C@@H](O)[C@H](O)[C@H]3O)c(O)cc(O)c12` [Compound 6, vitexin] yielded an IC50 [1, 5] of 14.9 ± 3.66 µM and an IC50 [2, 6] of 19.5 ± 1.47 µM.
Molecule `O=c1cc(-c2ccc(O)c(O)c2)oc2c([C@@H]3O[C@H](CO)[C@@H](O)[C@H](O)[C@H]3O)c(O)cc(O)c12` [Compound 7, orientin] has an IC50 [1, 5] of 13.3 ± 0.65 µM and an IC50 [2, 6] of 9.61 ± 0.27 µM.
In the case of `O=C(O)c1cc(O)c(O)c(O)c1` [Compound 8, gallic acid], the “inhibition of AGE formation in BSA-MGO system (in words)” value [1] is reported as “no or slight inhibitory activity”, the IC50 [1, 5] is reported as greater than 500 µM and the IC50 [2, 6] is reported as 192 ± 2.15 µM.
For `O=C(O)/C=C/c1ccc(O)c(O)c1` [Compound 9, caffeic acid], the IC50 [1, 5] was 43 ± 9.41 µM, the IC50 [2, 6] was 54.51 ± 0.3 µM and the “α-glucosidase inhibitory activity (in words)” value [4] was “no, or slight, inhibitory activity”.
With `C[C@@H]1O[C@@H](O[C@@H]2[C@@H](O)[C@H](O)[C@@H](CO)O[C@H]2c2c(O)cc(O)c3c(=O)cc(-c4ccc(O)cc4)oc23)[C@H](O)[C@H](O)[C@H]1O` [Compound 10, vitexin-2″-O-rhamnoside] the IC50 [1] was 12.5 ± 0.81 µM, the IC50 [2] was 29.6 ± 1.02 µM and the IC50 [4] was 12.8 ± 1.18 µM.
For `O=c1cc(-c2ccc(O)cc2)oc2c([C@@H]3O[C@H](CO)[C@@H](O[C@@H]4O[C@H](CO)[C@@H](O)[C@H](O)[C@H]4O)[C@H](O)[C@H]3O)c(O)cc(O)c12` [Compound 11, vitexin-4″-O-glucoside], the IC50 [1, 5] was 11.6 ± 1.1 µM, the IC50 [2, 6] was 14.5 ± 0.39 µM and the IC50 [4] was 65.4 ± 4.22 µM.
